# PubChem BioAssay (NCI)
# Several values for one entry are separate records, joined by “and”; a condition that tells them apart may be missing. Identical values can stand only once.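 Briefly, cells in 96-well plates were exposed to five compound concentrations for 48 h, and endpoints were estimated by linear interpolation. GI50 is the concentration that inhibits growth by half. TGI: total growth inhibition.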
# Experiments:
# Test in all cases: NCI tumour cell line growth inhibition, 48 h
# [1] = tested on: IGROV1 ovarian
# [2] = tested on: MCF7 breast
# [3] = tested on: MDA-MB-231 breast
# [4] = tested on: NCI-H226 lung
# [5] = tested on: OVCAR-3 ovarian
# [6] = tested on: RPMI-8226 leukemia
# [7] = tested on: SNB-19 CNS
# [8] = tested on: EKVX NSCLC
SMILES,GI50 [1],TGI [1] [µM],GI50 [2] [µM],TGI [2] [µM],GI50 [3] [µM],TGI [3] [µM],GI50 [4] [µM],TGI [4] [µM],GI50 [5] [µM],TGI [5] [µM],GI50 [6] [µM],TGI [6] [µM],GI50 [7] [µM],TGI [7] [µM],GI50 [8] [µM],TGI [8] [µM]
COc1ccc2c(c1)C(=O)/C(=C/c1ncc([N+](=O)[O-])n1C)O2,0.985 µM,6.91,0.32,7.98,0.299,0.826,2.09,5.3,1.3,5.11,0.416,2.06,1.26,6.08,,
O=c1[nH]cnc2[nH]ncc12,54.6 µM and 422 µM,> 5000,259,> 5000,163,1750,878,> 5000,269,> 1820,116,> 5000,> 5000,> 5000,785,> 5000
COc1cc(-c2nc3sc4c(c3c(=O)[nH]2)CCCCCC4)cc(OC)c1OC,4.58 µM,> 33.2,0.903,> 33.2,1.07,29.5,3.6,> 33.2,0.922,8.94,1.19,12.6,1.56,> 33.2,,
COc1cc(/C=C2\CN(C)C/C(=C\c3cc(CN4CCCCC4)c(O)c(OC)c3)C2=O)cc(CN2CCCCC2)c1O,3.36 µM,13.6,2.93,13.9,3.18,11.6,10.5,25.9,3,10.4,3.04,9.32,,,4.57,17.6
COC(=O)C1(F)C(=O)NC(=O)NC1O (stereo not given),,> 100,,> 100,,> 100,,> 100,,> 100,,> 100,,> 100,,> 100
Cc1c(C)[n+](=O)c(C)c(C)n1[O-],> 100 µM,> 100,> 100,> 100,> 100,> 100,> 100,> 100,> 100,> 100,> 100,> 100,> 100,> 100,> 100,> 100
COc1ccc(/C=C/C(=O)Oc2cc(O)cc(O)c2)cc1,,76.1,,71.7,,> 100,,> 100,,32.1,,42.4,,> 100,,> 100
COc1ccc(-c2ccc(-c3ccc(-c4ccc(C(=N)N)cc4)s3)s2)cc1OC,0.937 µM,3.78,0.39,2.1,,,18.5,58.4,0.369,1.47,2.86,13.4,3.01,16.6,,
CO[C@@H]1/C=C(C)/C=C/[C@@H](C)/C=C(\C)C(=O)OC(/C(C)=C/C=C(\C)CNC(=O)[C@H](CO)NC=O)[C@@H](C)/C=C/C=C/[C@H](OC)CC/C=C(C)/C=C/C1 (stereo not given in full),< 0.005 µM,9.15,< 0.005,9.14,0.292,,< 0.005,0.221,< 0.005,0.605,< 0.005,11.8,0.303,9.12,5.56,15.6
O=C(N/N=C/c1ccc([N+](=O)[O-])cc1)c1ccc2nc(-c3ccc(Cl)cc3)[nH]c2c1,3.04 µM,11.4,0.582,2.85,3.75,13.9,5.03,31.2,3.25,8.23,0.461,2.41,7.48,32.4,3.2,21.2
CC(C)NC(=O)OCc1c(COC(=O)NC(C)C)c(-c2ccc(Cl)cc2)n2c1CCC2,1.59 µM,10.2,3.59,33.4,2.96,12.3,2.31,11.3,3.08,10.3,2.6,23.8,4.65,21.7,4.09,32.9
C=C(c1ccc(C(=O)N(C)c2ccccc2N)cc1)C(C)N1C(=O)[C@H]2CCCN2C(=O)c2ccccc21 (stereo not given in full),69.5 µM,> 100,23.2,> 100,58.5,> 100,63.4,> 100,82,> 100,7.52,37.7,> 100,> 100,80.6,> 100
O=C(O)c1cc2cc(OCc3ccccc3)c(OCc3ccccc3)cc2[nH]1,24.9 µM,54.2,21.8,55.1,28.2,79,17.1,35.7,17.3,31.6,23,68.4,32.1,> 100,17.8,38.9
O=C(c1ccco1)c1c(C(F)(F)F)n([O-])c2ccccc2[n+]1=O,0.549 µM,1.21,0.458,7.36,0.772,3.6,0.665,4.31,0.735,3.88,0.227,1.27,3.34,22.3,0.226,0.741
NC1=NC(c2ccc(Cl)cc2)C2=C(N1)/C(=C/c1ccc(Cl)cc1)CCC2 (stereo not given),15 µM,> 64.4,3.62,> 100,> 29.6,> 56.1,4.25,11.8,5.76,15.4,2.36,6.15,19.8,99.3,13.3,78.4
C=C1C(=O)O[C@H]2[C@H]1CC/C(COC(=O)NCCc1c[nH]c3ccc(OC)cc13)=C\CC[C@@]1(C)O[C@@H]21,2.08 µM,4.7,,,1.97,4.44,1.88,3.61,1.44,3.92,1.44,4.74,10,21.9,1.94,5.45
C=C1C(=O)O[C@H]2[C@H]1CC/C(COC(=O)CSCC(=O)OC/C1=C/CC[C@@]3(C)O[C@H]3[C@H]3OC(=O)C(=C)[C@@H]3CC1)=C\CC[C@@]1(C)O[C@@H]21,1.47 µM,4.02,0.48,2.33,1.63,3.34,2.28,6.59,0.832,2.12,1.45,4.01,3.11,13.9,1.82,4.12

SMILES,GI50 [1],TGI [1] [µM],GI50 [2] [µM],TGI [2] [µM],GI50 [3] [µM],TGI [3] [µM],GI50 [4] [µM],TGI [4] [µM],GI50 [5] [µM],TGI [5] [µM],GI50 [6] [µM],TGI [6] [µM],GI50 [7] [µM],TGI [7] [µM],GI50 [8] [µM],TGI [8] [µM]
CN1CCN(Cc2ccc(NC(=O)c3ccc(C#Cc4c(N)ncc5ccc(F)cc45)cc3)cc2C(F)(F)F)CC1,1.13 µM,2.56,0.837,1.59,1.14,2.04,1.07,2.6,1.4,3.68,1.08,2.48,1.09,1.91,0.94,1.85
O=C(Nc1ccccc1O)c1ccc(Oc2cccc(C(=O)Nc3ccccc3O)c2)cc1,5.25 µM,27.3,2.57,11.5,2.22,11.8,2.06,10.8,3.28,9.86,2.84,8.78,2.08,14.4,,
CO[C@@H]1CC(=O)C2(CC(=O)O[C@@H]2/C=C(\C)CCC=C(C)C)C[C@@H]1O (stereo not given in full),1.09 µM,4.03,0.199,1.17,0.642,1.66,0.755,2.05,0.839,2.28,0.118,0.432,1.23,4.11,1.42,4.51
COc1ccc(C(=O)c2cc3c(OC)c(OC)c(OC)cc3[nH]2)cc1,9.68 µM,> 100,1.32,> 100,4.96,> 100,> 100,> 100,9.07,> 100,2.81,8.13,18.6,> 100,5.14,> 100
O=C(O)c1cc(N=Cc2ccccc2O)cc(C(=O)O)c1,,> 100,,> 100,,> 100,,> 100,,> 100,,> 100,,> 100,,> 100
COc1cccc2c1C(=O)c1c(O)c3c(c(O)c1C2=O)C[C@@](O)(C(=O)CO)C[C@@H]3OC1C[C@H](N)[C@H](O)[C@H](C)O1 (stereo not given in full),0.0901 µM,8.58,0.00926,4.15,0.144,5.41,0.0201,0.102,0.167,,0.0909,1.28,0.0246,6.33,0.201,5.28
Cc1ccc2c(c1)NC(=O)CC(c1ccccc1)=N2,,> 100,,> 100,,79.9,,> 100,,> 100,,76.7,,> 100,,> 100
COc1cccc(/C=C/c2cnc3ccccc3n2)c1OC,,> 100,,> 100,,> 100,,> 100,,> 100,,> 100,,,,> 100
O=C(CCl)N1c2ccccc2Sc2ccc3ccccc3c21,0.567 µM,1.5,1.49,3.29,1.64,3.14,2.36,5.5,1.36,2.72,1.32,4.06,1.58,3.09,,
CSc1ccc2c3c(n(C[C@H](O)CO)c(=O)c2c1)-c1ccccc1C3=O,3.77 µM,85.3,0.423,11,3.13,15.1,1.86,5.31,4.33,41.9,1.62,4.86,,,3.89,88
COc1ccc(/C=C\c2cc(OC)c(OC)c(OC)c2)cc1OC(=O)CCC(=O)O,,> 100,,> 100,,,,< 0.0001,,,,> 100,,> 100,51.5,> 100
O=c1cc(-c2ccccc2)[nH]n1-c1nc2ccccc2[nH]1,6.81 µM,> 100,3.89,> 100,6.92,93.6,9.49,> 100,4.46,> 100,3.59,52.4,4.89,> 100,,
N#CC1=C(N)NC(=O)NC12Nc1ccccc1S2 (stereo not given),> 45.7 µM,> 74.8,24.6,> 73.5,10.4,31.2,14.4,36.9,26.8,> 59.9,> 37,> 55.7,44.5,> 100,,
Cc1c2c[n+](C(C)C)ccc2c(C)c2c1[nH]c1ccccc12,,,1.85,14.8,4.86,43,4.32,41.5,2.61,12.2,1.82,13.1,0.416,14.7,3.51,53.9
Cc1cc(=O)oc2cc(OCc3c(F)cccc3Cl)ccc12,,> 100,,> 100,,> 100,,> 100,,> 100,,,,> 100,,
COc1ccc2c(c1)C(c1ccccc1Cl)=Nc1c(n[nH]c1C)N2,> 25 µM,> 25,13.7,> 25,> 25,> 25,3.28,> 25,> 25,> 25,> 25,> 25,> 25,> 25,,
